As usually defined, the Ki is a measure of affinity in units of concentration, obtained from inhibition or displacement. The low end stands for higher affinity, the high end for lower affinity. As a reminder, the hepatocyte CLint is the capacity of the preparation to metabolise the compound, expressed as a volume cleared per time. Read a high hepatocyte CLint as rapid turnover. A word on the inhibition: it is the relative decrease from the control value, in per cent. A higher inhibition goes with a response far below the control. The term Cmax denotes the maximum level reached in the sampled fluid or tissue. The Tmax is the time at which the peak concentration occurs. The term Vss denotes a proportionality between amount in the body and measured concentration, not a real space. A low value points to little distribution into tissue.

This is an account of results in patent publication US20260315487A1, “IKK-ALPHA INHIBITORS” (Cancer Research Technology Limited, priority 2023, published 2026).

One data set addresses T1, IKKα (Homo sapiens, UniProt O15111).
T1 sequence (O15111 1-745): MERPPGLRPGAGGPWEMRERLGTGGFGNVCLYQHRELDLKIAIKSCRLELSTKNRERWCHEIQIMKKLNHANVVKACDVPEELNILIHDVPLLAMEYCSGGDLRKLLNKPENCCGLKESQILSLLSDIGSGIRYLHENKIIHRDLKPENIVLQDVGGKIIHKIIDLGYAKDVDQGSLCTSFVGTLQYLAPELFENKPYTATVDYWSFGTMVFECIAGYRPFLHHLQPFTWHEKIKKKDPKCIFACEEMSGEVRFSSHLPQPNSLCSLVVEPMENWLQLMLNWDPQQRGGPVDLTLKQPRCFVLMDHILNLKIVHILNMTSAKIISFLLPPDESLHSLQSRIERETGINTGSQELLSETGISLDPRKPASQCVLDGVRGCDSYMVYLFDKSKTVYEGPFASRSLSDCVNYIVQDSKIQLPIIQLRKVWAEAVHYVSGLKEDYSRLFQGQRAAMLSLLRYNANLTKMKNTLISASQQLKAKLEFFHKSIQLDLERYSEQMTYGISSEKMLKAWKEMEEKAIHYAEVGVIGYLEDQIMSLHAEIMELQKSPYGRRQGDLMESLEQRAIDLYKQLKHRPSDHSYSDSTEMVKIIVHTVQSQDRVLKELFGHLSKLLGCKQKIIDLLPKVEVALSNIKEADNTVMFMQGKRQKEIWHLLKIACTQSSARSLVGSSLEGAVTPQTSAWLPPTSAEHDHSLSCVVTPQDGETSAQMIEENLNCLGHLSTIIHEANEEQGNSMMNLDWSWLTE
As to the kind of experiment: in-house DELFIA kinase assay, IKKα. The data set is classed as biochemical.

Data set [1] is described as follows: mouse hepatocyte clearance (cryopreserved pooled mouse CD1 hepatocytes). In kind it is in vitro ADME. As to conditions: mouse, hepatocytes; 1 μM; 0.5×10^6 cells/mL; 37° C. As for the experimental part: Pharmacokinetic studies were contracted to Sygnature Discovery Limited. Intrinsic clearance and half life were determined using cryopreserved pooled mouse CD1 hepatocytes. Test compounds were analysed at 1 μM in Williams Media E buffer (0.01 % DMSO) at a cell density of 0.5×10^6 cells mL^−1 . Cells were incubated at 37° C. for one hour with shaking and compound depletion was measured by LC-MS/MS at six timepoints (0.25, 5, 10, 20, 40, and 60 minutes).

The next data set concerns the target T2, PRAK (Homo sapiens, UniProt Q8IW41).
T2 sequence (Q8IW41 1-473): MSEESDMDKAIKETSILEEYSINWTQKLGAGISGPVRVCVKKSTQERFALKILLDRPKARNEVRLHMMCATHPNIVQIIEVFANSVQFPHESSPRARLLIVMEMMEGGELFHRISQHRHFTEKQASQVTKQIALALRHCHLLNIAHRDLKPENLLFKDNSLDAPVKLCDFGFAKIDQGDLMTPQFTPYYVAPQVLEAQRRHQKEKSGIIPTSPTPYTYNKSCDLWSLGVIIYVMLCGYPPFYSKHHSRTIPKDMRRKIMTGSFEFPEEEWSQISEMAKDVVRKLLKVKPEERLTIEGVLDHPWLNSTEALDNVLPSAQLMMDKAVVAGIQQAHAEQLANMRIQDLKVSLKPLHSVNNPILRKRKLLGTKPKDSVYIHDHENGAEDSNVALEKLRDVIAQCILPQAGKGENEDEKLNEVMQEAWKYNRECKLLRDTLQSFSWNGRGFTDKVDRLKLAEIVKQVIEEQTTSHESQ
As to the kind of experiment: kinome profiling at 1 μM, PRAK. In kind it is biochemical. The text has this:
We profiled three compounds from the series across the kinome (FIG. 11). […] To identify the structural drivers for CDK inhibition, we obtained X-ray crystal structures of 5 y and 6 g SU1336 and SU1349 with CDK-2 (FIG. 12A) to potentially identify possible routes towards introducing selectivity for IKKα over the CDK enzymes as well as IKKβ. […] All three derivatives form complexes with CDK2 with the pyrrolo[2,3 -b]pyridine H-bonding to GK+3 (Leu 83 ) and the aminoindazole projected towards the G-loop (FIG. 12A), forming H-bonds with Glu 51 and Lys 33 at the back of the pocket. The adoption of the 4 SU1253 -type orientation, rather than the flipped pose observed in IKKα, is probably facilitated by Tr-stacking between the aminoindazole and the GK residue, which in the CDKs is Phe, rather than Met. […] For 6 g SU1349, the hydrophobic pendant benzyloxy group points out into solvent, but can form face-to-edge Tr-Tr interactions with Phe 82 and His 84 from the hinge. Exchanging the hydrophobic pendant benzyloxy group for the morpholinoethyl-containing substituent in 5 y SU1336 removes any direct interaction with these hinge residues, preferring to sit in a more solvent-exposed position, as befits a basic side chain that will be protonated at physiological pH (FIG. 12B).

The nature of data set [2]: in vivo murine PK in CD1 mice. Also on record: species or system mouse. The note with it: 10 mg/kg, mean. On the procedure: […] Prior formulation/solubility assessment was performed in routine excipients e.g., DMSO: cyclodextrin or HMPC/Tween 80 . Intravenous time points were taken at 5 min, 15 min, 30 min, 1, 2, 4, 8, and 24 hours and intraperitoneal time points were taken at 15 min, 30 min, 1, 2, 4, 6, 8, and 24 hours. Blood samples were prepared by protein precipitation with methanol or acetonitrile containing internal standard and then measured quantitative bioanalysis by LC-MS/MS.

For the molecule `Nc1n[nH]c2ccc(-c3ccnc4[nH]c(-c5cccc(OCc6ccccc6)c5)cc34)cc12` [5r SU1261, 5-(2-(3-(benzyloxy)phenyl)-1 H-pyrrolo[2,3-b]pyridin-4-yl)-1 H-indazol-3-amine], the affinity on IKKα corresponds to a Ki of 10 nM. This molecule came in with an intrinsic metabolic clearance (hepatocyte CLint) in data set [1] of 38 µL/min/1e6 cells. The molecule also yielded an inhibition at 1 µM at PRAK above 80%.

`Nc1n[nH]c2ccc(-c3ccnc4[nH]c(-c5ccnc(OCc6ccccc6)c5)cc34)cc12` [6g SU1349, 5-(2-(2-(Benzyloxy)pyridin-4-yl)-1 H-pyrrolo[2,3-b]pyridin-4-yl)-1 H-indazol-3-amine] showed a Ki at IKKα of 16 nM. Further, in data set [2] (I.P.), the Cmax worked out at 199 ng/mL, the F turned out to be 9.3%, the “Terminal t1/2” value was found to be 3.02 h and the Tmax was found to be 0.44 h. For the same molecule, in data set [2] (I.V.), the Clearance is 16.7 mL/min/kg, the “Terminal t1/2” value was determined as 4.18 h and the Vss was determined as 0.39 L/kg. Besides, in data set [1], the hepatocyte CLint was 27 µL/min/1e6 cells. The “off-target inhibition of PRAK, in words” value on PRAK (compared with 5r SU1261) is given as “significantly reduced off-target inhibition”.
